# Where two headings read alike, the source gives them in different places.
# Tests used:
# [1] = cited from earlier work; for Kel / T1/2el: arithmetic mean; for AUCT / Cmax: geometric mean
# [2] = clinical; details: male, human, in vivo
# From the text: Subjects were included only if they were not older than 45 years (as opposed to no upper limit). Also, in inclusion criteria the lower threshold for the body mass index was 21.00 (as opposed to 18.00) kg/m^2.
# [3] = cited from earlier work; for Kel / T1/2el: arithmetic mean; for AUCT / Cmax: geometric mean; remark: listed apart in the source
# [4] = clinical; details: human, plasma, oral
# [5] = cited from earlier work
# [6] = not given; remark: listed apart in the source
# [7] = Treatment-1: colchicine 0.6 mg alone (day 1, fasted), cyclosporine study
# [8] = Treatment-2: colchicine 0.6 mg + cyclosporine 100 mg once (day 15)
# [9] = Treatment-1: colchicine 0.6 mg alone (day 1, fasted), diltiazem ER study
# [10] = Treatment-2: colchicine 0.6 mg (day 21) + diltiazem ER 240 mg once daily (days 15-21)
# [11] = of 12 subjects, cimetidine study
# [12] = of 12 subjects, colchicine + cimetidine
# [13] = colchicine coadministered with azithromycin
# [14] = colchicine coadministered with clarithromycin
# [15] = colchicine coadministered with cyclosporine
# [16] = colchicine coadministered with diltiazem ER
# [17] = colchicine coadministered with ketoconazole
# [18] = colchicine coadministered with ritonavir
# [19] = colchicine coadministered with verapamil ER
# [20] = of 12 subjects, colchicine + propafenone
# [21] = of 12 subjects, propafenone study
smiles,measurement,setting,value
"COc1cc2c(c(OC)c1OC)-c1ccc(OC)c(=O)cc1[C@@H](NC(C)=O)CC2 [Colchicine, (S)N-(5,6,7,9-tetrahydro-1,2,3,10-tetramethoxy-9-oxobenzo[alpha]heptalen-7-yl)acetamide]",Kel,[1]; [7],0.147 h⁻¹
same,T1/2el,[1]; [7],6.777 h
same,CLTOT/F,[1]; [7],48.24 L/h
same,AUCT,[1]; [7],"12,555 pg · h/mL"
same,Cmax,[1]; [7],"2,720 pg/mL"
same,Kel,[1]; [8],0.038 h⁻¹
same,T1/2el,[1]; [8],20.65 h
same,CLTOT/F,[1]; [8],13.42 L/h
same,AUCT,[1]; [8],"29,830 pg · h/mL"
same,Cmax,[1]; [8],"8,820 pg/mL"
same,CL/F,[2]; 0.6 mg,558 mL/min
same,Tmax,[2]; 0.6 mg,1.5 h
same,Vd/F,[2]; 0.6 mg,1410 L
same,AUC(0-t),"[2]; 0.6 mg, AUCT GEOMETRIC LSMEANS, Treatment-1: colchicine 0.6 mg alone, propafenone study",16.2 ng·h/mL
same,AUC(0-t),"[2]; 0.6 mg, AUCT, Treatment-1 (day 1): colchicine 0.6 mg alone, fasted, propafenone study, mean",16.6 ng·h/mL
same,AUC(0-inf),"[2]; 0.6 mg, AUC∞ GEOMETRIC LSMEANS, Treatment-1: colchicine 0.6 mg alone, propafenone study",18.4 ng·h/mL
same,AUC(0-inf),"[2]; 0.6 mg, AUC∞, Treatment-1 (day 1): colchicine 0.6 mg alone, fasted, propafenone study, mean",18.9 ng·h/mL
same,Cmax,"[2]; 0.6 mg, Cmax GEOMETRIC LSMEANS, Treatment-1: colchicine 0.6 mg alone, propafenone study",2.05 ng/mL
same,Cmax,"[2]; 0.6 mg, Cmax, Treatment-1 (day 1): colchicine 0.6 mg alone, fasted, propafenone study, mean",2.12 ng/mL
same,AUC(0-t),"[2]; AUCT GEOMETRIC LSMEANS, Treatment-2: colchicine 0.6 mg + propafenone",16.4 ng·h/mL
same,AUC(0-t),"[2]; AUCT, Treatment-2 (day 9): colchicine 0.6 mg + propafenone 225 mg after twice daily days 4-8, fasted, mean",16.8 ng·h/mL
same,AUC(0-inf),"[2]; AUC∞ GEOMETRIC LSMEANS, Treatment-2: colchicine 0.6 mg + propafenone",18.4 ng·h/mL
same,AUC(0-inf),"[2]; AUC∞, Treatment-2 (day 9): colchicine 0.6 mg + propafenone 225 mg after twice daily days 4-8, fasted, mean",18.9 ng·h/mL
same,Cmax,"[2]; Cmax GEOMETRIC LSMEANS, Treatment-2: colchicine 0.6 mg + propafenone",2.18 ng/mL
same,Cmax,"[2]; Cmax, Treatment-2 (day 9): colchicine 0.6 mg + propafenone 225 mg after twice daily days 4-8, fasted, mean",2.21 ng/mL
same,Kel,[3]; [9],0.1589 h⁻¹
same,T1/2el,[3]; [9],5.51 h
same,CLTOT/F,[3]; [9],58.88 L/h
same,AUCT,[3]; [9],"10,040 pg · h/mL"
same,Cmax,[3]; [9],"2,170 pg/mL"
same,Kel,[3]; [10],0.0838 h⁻¹
same,T1/2el,[3]; [10],12.5 h
same,CLTOT/F,[3]; [10],34.7 L/h
same,AUCT,[3]; [10],"12,730 pg · h/mL"
same,Cmax,[3]; [10],"2,800 pg/mL"
same,Number of adverse events requiring medication after Treatment-1,cimetidine study,None
same,Number of serious adverse events or deaths,cimetidine study,None
same,Total number of adverse events after Treatment-1,cimetidine study,11
same,Total number of adverse events after Treatment-2,colchicine + cimetidine,2
same,Number of subjects experiencing adverse events after Treatment-1,[11],7
same,Percent of subjects experiencing adverse events after Treatment-1,[11],58.3%
same,Number of subjects experiencing adverse events after Treatment-2,[12],1
same,Percent of subjects experiencing adverse events after Treatment-2,[12],8.3%
same,AUC(0-t),"[4]; both, AUCT, Treatment-2 (day 9): colchicine 0.6 mg + cimetidine 800 mg after double dose day 4, once daily days 5-8, fasted, mean",18.1 ng·h/mL
same,CL/F,[4]; 0.6 mg,465 mL/min
same,Tmax,[4]; 0.6 mg,1.25 h
same,Vd/F,[4]; 0.6 mg,1410 L
same,AUC(0-t),"[4]; 0.6 mg, AUCT GEOMETRIC LSMEANS, Treatment-1: colchicine 0.6 mg alone, cimetidine study",19.3 ng·h/mL
same,AUC(0-t),"[4]; 0.6 mg, AUCT, Treatment-1 (day 1): colchicine 0.6 mg alone, fasted, cimetidine study, mean",20.4 ng·h/mL
same,AUC(0-inf),"[4]; 0.6 mg, AUC∞ GEOMETRIC LSMEANS, Treatment-1: colchicine 0.6 mg alone, cimetidine study",22.6 ng·h/mL
same,AUC(0-inf),"[4]; 0.6 mg, AUC∞, Treatment-1 (day 1): colchicine 0.6 mg alone, fasted, cimetidine study, mean",24 ng·h/mL
same,Cmax,"[4]; 0.6 mg, Cmax GEOMETRIC LSMEANS, Treatment-1: colchicine 0.6 mg alone, cimetidine study",2.78 ng/mL
same,Cmax,"[4]; 0.6 mg, Cmax, Treatment-1 (day 1): colchicine 0.6 mg alone, fasted, cimetidine study, mean",3 ng/mL
same,AUC(0-t),"[4]; AUCT GEOMETRIC LSMEANS, Treatment-2: colchicine 0.6 mg + cimetidine",16.7 ng·h/mL
same,AUC(0-inf),"[4]; AUC∞ GEOMETRIC LSMEANS, Treatment-2: colchicine 0.6 mg + cimetidine",19.3 ng·h/mL
same,AUC(0-inf),"[4]; AUC∞, Treatment-2 (day 9): colchicine 0.6 mg + cimetidine 800 mg after double dose day 4, once daily days 5-8, fasted, mean",21 ng·h/mL
same,Cmax,"[4]; Cmax GEOMETRIC LSMEANS, Treatment-2: colchicine 0.6 mg + cimetidine",1.88 ng/mL
same,Cmax,"[4]; Cmax, Treatment-2 (day 9): colchicine 0.6 mg + cimetidine 800 mg after double dose day 4, once daily days 5-8, fasted, mean",2.11 ng/mL
same,Number of 24 subjects with adverse events overall,[5]; [13],11
same,Percent of 24 subjects with adverse events overall,[5]; [13],(45.8) %
same,Total number of adverse events,[5]; [13],27
same,Number of 24 subjects with adverse events overall,[5]; [14],14
same,Percent of 24 subjects with adverse events overall,[5]; [14],(58.3) %
same,Total number of adverse events,[5]; [14],26
same,Number of 24 subjects with adverse events overall,[5]; [15],6
same,Percent of 24 subjects with adverse events overall,[5]; [15],(25.0%)
same,Total number of adverse events,[5]; [15],5
same,Number of 24 subjects with adverse events overall,[5]; [16],14
same,Percent of 24 subjects with adverse events overall,[5]; [16],(58.3) %
same,Total number of adverse events,[5]; [16],21
same,Number of 24 subjects with adverse events overall,[5]; [17],10
same,Percent of 24 subjects with adverse events overall,[5]; [17],(41.7) %
same,Total number of adverse events,[5]; [17],11
same,Number of 24 subjects with adverse events overall,[5]; [18],5
same,Percent of 24 subjects with adverse events overall,[5]; [18],(20.8) %
same,Total number of adverse events,[5]; [18],8
same,Number of 24 subjects with adverse events overall,[5]; [19],14
same,Percent of 24 subjects with adverse events overall,[5]; [19],(58.3) %
same,Total number of adverse events,[5]; [19],22
same,Total number of adverse events after Treatment-2,[6]; colchicine + propafenone,1
same,Number of subjects experiencing adverse events after Treatment-2,[6]; [20],1
same,Percent of subjects experiencing adverse events after Treatment-2,[6]; [20],8.3%
same,Number of subjects experiencing adverse events after Treatment-1,[6]; [21],9
same,Percent of subjects experiencing adverse events after Treatment-1,[6]; [21],75.0%
same,Number of adverse events requiring medication after Treatment-1,[6]; propafenone study,None
same,Number of serious adverse events or deaths,[6]; propafenone study,None
same,Total number of adverse events after Treatment-1,[6]; propafenone study,19
